Key:
[1] = test system: NCI-H1876 (Small Cell Lung Carcinoma); test: Bliss excess, mean over the matrix (fraction); higher = more synergy
Procedure, shortened: (§1)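 After 24 hours at 37°C and 5% CO2 in 1536-well plates, cells in DMEM/F12 or RPMI plus 10% FBS received two-drug dose matrices for 72 hours. Viability came from CellTiter-Glo 2.0 luminescence and was scaled as inhibition, anchored at 0 by vehicle wells and at 1 by blank wells. Combination Emax is taken as the second-highest inhibition in the matrix, and Bliss excess as the observed combination effect less EA + EB − EA·EB, with EA and EB the single-agent effects.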

[2] = test system: SNU-407 (Colorectal Carcinoma); test: as above
Procedure, shortened: as §1

CS(=O)(=O)CCNCc1ccc(-c2ccc3ncnc(Nc4ccc(OCc5cccc(F)c5)c(Cl)c4)c3c2)o1 [Lapatinib] + NC1(c2ccc(-c3nc4ccn5c(=O)[nH]nc5c4cc3-c3ccccc3)cc2)CCC1 [MK-2206] (first compound max 10 µM, 7x7, partner max 10 µM)
Bliss excess [1]: 0.0885
Bliss excess [2]: 0.0808

— the supplement of paper PMC11061612
